Two compounds from US7521466B2, “Dipeptide phenyl ethers” (Bexel Pharmaceuticals, Inc., priority 2003, dated 2009) can be followed below.

Counter-ions that a name gives are not always drawn.

In data set [1] the test system is db/db mice. As to the kind of experiment: Testing hyperglycemia in diabetic db/db mice. It counts as in vivo. The note with it: for improvement of hyperglycemic conditions (blood glucose): db/db mice, 5, 10 and 50 mg/kg body weight orally, 15-21 days; for drop in blood glucose in treated animals compared to control groups: db/db mice, time course experiment following the oral dose (FIGS. 1A, 2A). How it is done:
The hypoglycemic effect of compounds A and B have been examined in spontaneous animal models of diabetes, leptin receptor knockout (db/db mice). The db/db mice have defective leptin receptor and show hyperglycemia with significant weight gain. The compound at a dose of 5, 10 (FIGS. 1C, 2C) and 50 mg/kg body weight (FIGS. lB, 2B) was given orally in these animals for a period of 15-21 days.

Data set [2] concerns db/db mice. As to the kind of experiment: Body weight gain, food and water intake in db/db mice. It counts as in vivo. The settings on record: 50 mg/kg orally, 15-21 days. As for the experimental part:
The db/db mice have defective leptin receptor and show hyperglycemia with significant weight gain. The compound B at a dose of 50 mg/kg body weight was given orally in these animals for a period of 15-21 days.

Data set [3] deals with ob/ob mice. As to the kind of experiment: Lipid profile (TG, VLDL, cholesterol, HDL) in ob/ob mice. It counts as in vivo. The settings on record: 15-day treatment study. The source says:
The leptin knock-out ob/ob mice is also considered a good model for insulin resistance and hyperlipidemia. Treatment of these animals with the compounds A and B lowered serum triglycerides (FIG. 4A) and VLDL (FIG. 4B) concentration by >50%.

Data set [4] relates to ob/ob mice. As to the kind of experiment: Hyperglycemia and OGTT in diabetic obese ob/ob mice. The data set is classed as in vivo. The note with it: 50 mg/kg orally, 15-21 days. How it is done:
The ob/ob mice is lacking leptin signaling and show hyperglycemia with significant weight gain. The compounds at a dose 50 mg/kg body weight were given orally in these animals for a period of 15-21 days.

For data set [5], the system named is ob/ob mice. In words: Body weight gain, food and water intake in obese diabetic ob/ob mice. The data set is classed as in vivo. The note with it: 50 mg/kg orally, 15-21 days. How it is done:
The ob/ob mice are lacking circulating leptin r and show hyperglycemia with significant weight gain. Both the compounds A and B at a dose of 50 mg/kg body weight were given orally in these animals for a period of 15-21 days.

Data set [6] deals with TNFα. In words: LPS induced TNFα production in THP-1 monocyte cells. It counts as cell-based, Human. The note with it: THP-1 cells, LPS 1 μg/ml, 24 hours, ELISA. How it is done: (§1) Human THP-1 monocyte cells were cultured and incubated with compounds A and B at different concentrations. Cells were then challenged with lipopolysaccharides (LPS) at a concentration of (1 μg/ml) for 24 hours. Cell supernatants were then analyzed for the presence of TNFα, IL-1β and IL-6 cytokines by antibody directed enzyme-linked immunoassay (FIGS. 8A, 8B, and 8C).
On the technique in general: ELISA stands for enzyme-linked immunosorbent assay.

Data set [7] deals with IL-1β. In words: LPS induced IL-1β production in THP-1 monocyte cells. The data set is classed as cell-based, Human. The settings on record: THP-1 cells, LPS 1 μg/ml, 24 hours, ELISA. How it is done: as §1
Data set [8] relates to IL-6. As to the kind of experiment: LPS induced IL-6 production in THP-1 monocyte cells. It counts as cell-based, Human. The note with it: THP-1 cells, LPS 1 μg/ml, 24 hours, ELISA. As for the experimental part:
as §1

For data set [9], the system named is Human THP-1 monocyte cells. In words: Cell viability of THP-1 monocyte cells. The data set is classed as cell-based. The note with it: THP-1 cells, highest concentration of the compound.
Data set [10] deals with 3T3-L1 fibroblasts. As to the kind of experiment: Adipogenesis (lipid accumulation, oil red O) in 3T3-L1 fibroblasts. The data set is classed as cell-based. The settings on record: 0.1 and 10 uM, 7 days, oil red O staining. As for the experimental part: Rosiglitazone and Compound A at 0.1 and 10 uM concentrations, were treated for 7 days and at the end lipid droplets were stained with oil red O and visualized under microscope.

Data set [11] deals with 3T3-L1 differentiated adipocytes. As to the kind of experiment: Basal glucose uptake in 3T3-L1 adipocytes. The data set is classed as cell-based. The note with it: 72 hr treatment, absence of insulin, control 0.1% DMSO. As for the experimental part: Basal glucose uptake was carried out in 3T3-L1 differentiated adipocytes. After 72 hr of treatment they were challenged with either rosiglitazone or Compound A, then glucose uptake was carried out in absence of insulin. The control was 0.1% DMSO. Cytochalasin B was added in another set of wells to show the effect is receptor mediated.

On to `COC(=O)C(Cc1ccc(Oc2ccc(C=C3SC(=O)NC3=O)cc2)cc1)NC(=O)C(N)Cc1c[nH]cn1.Cl.Cl` (centres unmarked) [Compound B, 5-[4-(4-(2-(2-Amino-3-imidazol-4-ylpropanamido)-2-methoxycarbonylethyl)phenoxy)benzylidene]thiazolidin-2,4-dione dihydrochloride], for which, in [1], the “improvement of hyperglycemic conditions (blood glucose)” value is on record as “significant improvements of hyperglycemic conditions” and the “drop in blood glucose in treated animals compared to control groups” value was 24%. In addition, in [2], the “body weight gain compared to controls” value is listed as “significant reductions in body weight gain”, the “food intake compared to control groups” value is given as “improved significantly” and the “water intake compared to control groups” value is “improved significantly”. The “decrease in serum cholesterol concentrations” value in data set [3] is reported as 19%. For the same compound, in [4], the “OGTT (oral glucose tolerance)” value was “significant improvement of OGTT” and the “improvement of hyperglycemic conditions” value was “significant improvements of hyperglycemic conditions”. Moreover, in [5], the “body weight gain compared to controls” value is “significant reductions in body weight gain”, the “food intake compared to control groups” value is given as “improved significantly” and the “water intake compared to control groups” value is listed as “improved significantly”. The “inhibition of TNFα production” value in data set [6] is listed as “inhibit the production of three major pro-inflammatory cytokines in a dose dependent manner”. Further, the “inhibition of IL-1β production” value in data set [7] is on record as “inhibit the production of three major pro-inflammatory cytokines in a dose dependent manner”. Also, the “inhibition of IL-6 production” value in data set [8] is “inhibit the production of three major pro-inflammatory cytokines in a dose dependent manner”. In addition, the cell viability entry in data set [9] is given as “No significant change in cell viability”.

In the case of `COC(=O)C(Cc1ccc(Oc2ccc(CC3SC(=O)NC3=O)cc2)cc1)NC(=O)C(N)Cc1cnc[nH]1` (centres unmarked) [Compound A, 5-[4-(4-(2-(2-amino-3-imidazol-4-ylpropanamido)-2-methoxycarbonylethyl)phenoxy)benzyl]thiazolidin-2,4-dione dihydrochloride], in data set [1], the “improvement of hyperglycemic conditions (blood glucose)” value is “significant improvements of hyperglycemic conditions” and the “drop in blood glucose in treated animals compared to control groups” value was found to be 30%. The “decrease in serum cholesterol concentrations” value in data set [3] worked out at 19%. Also, in data set [4], the “OGTT (oral glucose tolerance)” value is “significant improvement of OGTT” and the “improvement of hyperglycemic conditions” value was “significant improvements of hyperglycemic conditions”. Moreover, in data set [5], the “body weight gain compared to controls” value is on record as “significant reductions in body weight gain”, the “food intake compared to control groups” value was “improved significantly” and the “water intake compared to control groups” value is on record as “improved significantly”. In data set [10], the “adipogenesis (lipid accumulation) compared to rosiglitazone” value is “did not show any adipogenesis”. In addition, the “basal glucose uptake compared to control cells” value in data set [11] is reported as “significant increase in basal glucose uptake”. In addition, in data set [6], the “inhibition of TNFα production” value is on record as “inhibit the production of three major pro-inflammatory cytokines in a dose dependent manner”. Moreover, the “inhibition of IL-1β production” value in data set [7] is “inhibit the production of three major pro-inflammatory cytokines in a dose dependent manner”. In addition, the “inhibition of IL-6 production” value in data set [8] was “inhibit the production of three major pro-inflammatory cytokines in a dose dependent manner”. Besides, the cell viability entry in [9] is “No significant change in cell viability”.
